Results published in patent US10428151B2, “Treatment of hematologic malignancies with an anti-CXCR4 antibody” (BRISTOL-MYERS SQUIBB COMPANY, priority 2011, dated 2019).
“And” between values parts separate entries of the source, which are not always exact repeats. Equal entries are not always repeated.

Experiments:
HL-60 cells = assay: HL-60 AML xenograft in SCID mice; type: in vivo; details: for median tumor growth inhibition: Day 27, 10 mg/kg/dose
Text: To assess the antibody's efficacy in AML, two cytarabine-resistant mouse xenograft models, HL-60 and Nomo-1 were used. CXCR4 expression in each cell line was confirmed by FACS staining (FIG. 4A). SCID mice were subcutaneously implanted with 10 million HL-60 cells as described in Example 14.

MM cells = assay: Apoptotic and CXCL12 signalling pathways in MM cells; type: cell-based
Text: The BMS936564 antibody targeted MM cells in the context of BM milieu by overcoming BMSC-induced proliferation of tumor cells. […] Importantly, as described in Example 16, BMS936564 inhibited MM cell proliferation in vivo in xenograft mouse models.

Substance: BMS-936564: fully human anti-CXCR4 monoclonal antibody; VH SEQ ID NO: 25, VL SEQ ID NO: 29
- median tumor growth inhibition (HL-60 cells; compared to isotype): 88%
- median tumor growth inhibition (HL-60 cells; compared to vehicle): 83%
- % Tumor Growth Inhibition (Monotherapy) (HL-60 cells; HL60): 60% and 82%
- CXCL12-induced ERK-, Aid-, and Src-phosphorylation (MM cells): inhibited by BMS936564 in a dose-dependent manner
- activation of apoptotic pathways in MM cells (MM cells): cleavage of caspase-9 and PARP
